T1: S-adenosyl-L-methionine:delta24-sterol-C-methyltransferase (Glycine max, UniProt Q43445)
T1 sequence (Q43445 whole entry): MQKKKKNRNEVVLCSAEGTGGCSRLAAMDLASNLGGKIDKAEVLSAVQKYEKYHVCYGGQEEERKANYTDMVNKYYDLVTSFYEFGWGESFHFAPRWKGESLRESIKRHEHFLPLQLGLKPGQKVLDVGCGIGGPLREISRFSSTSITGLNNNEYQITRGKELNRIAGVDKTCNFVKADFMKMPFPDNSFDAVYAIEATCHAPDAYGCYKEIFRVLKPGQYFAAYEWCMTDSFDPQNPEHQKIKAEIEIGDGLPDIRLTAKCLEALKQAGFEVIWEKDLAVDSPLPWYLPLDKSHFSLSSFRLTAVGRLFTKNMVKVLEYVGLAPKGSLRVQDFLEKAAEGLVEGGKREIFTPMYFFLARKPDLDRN

T2: S-adenosyl-L-methionine:delta24-sterol-C-methyltransferase (Glycine max) (UniProt Q43445)
T2 sequence (whole entry): T1 sequence (Q43445 whole entry)

B1: S-adenosyl-L-methionine:delta24-sterol-C-methyltransferase (Glycine max), Q43445 (protein)
chain: T1 sequence (Q43445 whole entry)

Experiments:
[1] = biological target: T1, S-adenosyl-L-methionine:delta24-sterol-C-methyltransferase; experiment: (§1) Inhibition of soybean recombinant SMT expressed in Escherichia coli
[2] = biological target: T2, S-adenosyl-L-methionine:delta24-sterol-C-methyltransferase (Glycine max); experiment: as §1
[3] = biological target: T2, S-adenosyl-L-methionine:delta24-sterol-C-methyltransferase (Glycine max); experiment: Ratio of Kcat to Kinact for soybean recombinant SMT expressed in Escherichia coli
[4] = biological target: T2, S-adenosyl-L-methionine:delta24-sterol-C-methyltransferase (Glycine max); experiment: Inhibition of soybean recombinant SMT expressed in Escherichia coli assessed as C-methylation in presence of 100 uM cycloartenol substrate; set-up: scale not given: the % may be the effect or the level left
[5] = biological target: T2, S-adenosyl-L-methionine:delta24-sterol-C-methyltransferase (Glycine max); experiment: Inhibition of soybean recombinant SMT expressed in Escherichia coli assessed as C-methylation in presence of 50 uM cycloartenol substrate; set-up: scale not given: the % may be the effect or the level left
[6] = substrate: C=C/C(C)=C/CCC(C)[C@H]1CC[C@@]2(C)[C@@H]3CC[C@H]4C(C)(C)[C@@H](O)CCC45CC35CC[C@]12C; experiment: (§2) Activity of soybean recombinant SMT expressed in Escherichia coli; settings: Glycine max
[7] = substrate: C#C/C(C)=C/CCC(C)[C@H]1CC[C@@]2(C)[C@@H]3CC[C@H]4C(C)(C)[C@@H](O)CCC45CC35CC[C@]12C; experiment: as §2; settings: Glycine max

Row | Molecule | Ki [1] [µM] | Kinact [2] [min⁻¹] | Ratio [3] | further results
1 | CC(C)SCC[C@@H](C)[C@H]1CC[C@@]2(C)[C@@H]3CC[C@H]4C(C)(C)[C@@H](O)CCC45CC35CC[C@]12C (stereo partly specified) | 2 | 0.3 |  | 
2 | C=C/C(C)=C/CCC(C)[C@H]1CC[C@@]2(C)[C@@H]3CC[C@H]4C(C)(C)[C@@H](O)CCC45CC35CC[C@]12C (stereo partly specified) | 47 | 0.24 | 0.001 | Activity [4]: 45%; Activity [5]: 25%
3 | C#C/C(C)=C/CCC(C)[C@H]1CC[C@@]2(C)[C@@H]3CC[C@H]4C(C)(C)[C@@H](O)CCC45CC35CC[C@]12C (stereo partly specified) |  | 0.06 | 0.001 | IC50 [1]: 67 µM
4 | CC(C)=CCC[C@@H](C)[C@H]1CC[C@@]2(C)[C@@H]3CC[C@H]4C(C)(C)[C@@H](O)CCC45CC35CC[C@]12C (stereo partly specified) | 42 | 0.29 |  | 
5 | B1 |  |  |  | Km [6]: 5 µM; kcat [6]: 5e-06 s⁻¹; Km [7]: 2 µM; kcat [7]: 8.33e-07 s⁻¹
